Target: [35S]-TBPS binding, rat brain cortical membranes
Test: Steroid inhibition of [35S]-TBPS binding
Settings: 3 nM [35S]-TBPS, in the presence of 5 mM GABA
Procedure: [^35S]-t-Butylbicyclophosphorothionate (TBPS) binding assays using rat brain cortical membranes in the presence of 5 mM GABA has been described (Gee et al, J. Pharmacol. Exp. Ther. 1987, 241, 346-353; Hawkinson et al, Mol. Pharmacol. 1994, 46, 977-985; Lewin, A. H et al., Mol. Pharmacol. 1989, 35, 189-194).
Briefly, cortices are rapidly removed following decapitation of carbon dioxide-anesthetized Sprague-Dawley rats (200-250 g). The cortices are homogenized in 10 volumes of ice-cold 0.32 M sucrose using a glass/teflon homogenizer and centrifuged at 1500×g for 10 min at 4° C. The resultant supernatants are centrifuged at 10,000×g for 20 min at 4° C. to obtain the P2 pellets. The P2 pellets are resuspended in 200 mM NaCl/50 mM Na—K phosphate pH 7.4 buffer and centrifuged at 10,000×g for 10 min at 4° C. This washing procedure is repeated twice and the pellets are resuspended in 10 volumes of buffer. Aliquots ([…]) of the membrane suspensions are incubated with 3 nM [^35S]-TBPS and […] aliquots of test drug dissolved in dimethyl sulfoxide (DMSO) (final 0.5%) in the presence of 5 mM GABA. The incubation is brought to a final volume of 1.0 mL with buffer. Nonspecific binding is determined in the presence of […] and ranged from 15 to 25%. Following a 90 min incubation at room temp, the assays are terminated by filtration through glass fiber filters (Schleicher and Schuell No. 32) using a cell harvester (Brandel) and rinsed three times with ice-cold buffer. Filter bound radioactivity is measured by liquid scintillation spectrometry. Non-linear curve fitting of the overall data for each drug averaged for each concentration is done using Prism (GraphPad). […] The concentration of test compound producing 50% inhibition (IC50) of specific binding and the maximal extent of inhibition (Imax) are determined for the individual experiments with the same model used for the overall data and then the means±SEM.s of the individual experiments are calculated.
Various compounds are or can be screened to determine their potential as modulators of [^35S]-TBPS binding in vitro. These assays are or can be performed in accordance with the above

Compared with `CC[C@@]1(O)CC[C@H]2[C@H](CC[C@@H]3[C@@H]2CC[C@]2(C)[C@@H]([C@H](C)Cn4nccc4C#N)CC[C@@H]32)C1` [Example 274, 1-((S)-2-((3R,5R,8R,9R,10S,13S,14S,17R)-3-ethyl-3-hydroxy-13-methylhexadecahydro-1H-cyclopenta[a]phenanthren-17-yl)propyl)-1H-pyrazole-5-carbonitrile], `CCOC[C@@]1(O)CC[C@H]2[C@H](CC[C@@H]3[C@@H]2CC[C@]2(C)[C@@H]([C@@H](C)Cn4ccc(C#N)n4)CC[C@@H]32)C1` [Example 288, 1-((R)-2-((3R,5R,8R,9R,10S,13S,14S,17R)-3-(ethoxymethyl)-3-hydroxy-13-methylhexadecahydro-1H-cyclopenta[a]phenanthren-17-yl)propyl)-1H-pyrazole-3-carbonitrile] is lower in IC50: 100 to 1000 nM for the first, < 100 nM for the second. The second is the more potent here.

Compared with `COC[C@@]1(O)CC[C@H]2[C@H](CC[C@@H]3[C@@H]2CC[C@]2(C)[C@@H]([C@@H](C)Cc4nc(C)ccc4Cl)CC[C@@H]32)C1` [Example 424], `COC[C@@]1(O)CC[C@H]2[C@H](CC[C@@H]3[C@@H]2CC[C@]2(C)[C@@H]([C@H](C)Cc4cnc(C)cn4)CC[C@@H]32)C1` [Example 423] is higher in IC50: < 100 nM for the first, 100 to 1000 nM for the second. The first is the more potent here.

`COC[C@@]1(O)CC[C@H]2[C@@H](CC[C@@H]3[C@@H]2CC[C@]2(C)[C@@H](CCn4nccn4)CC[C@@H]32)C1` [Example 297, (3R,5S,8R,9R,10S,13R,14S,17R)-17-(2-(2H-1,2,3-triazol-2-yl)ethyl)-3-(methoxymethyl)-13-methylhexadecahydro-1H-cyclopenta[a]phenanthren-3-ol] and `COC[C@@]1(O)CC[C@H]2[C@H](CC[C@@H]3[C@@H]2CC[C@]2(C)[C@@H](CCn4nnc(C)n4)CC[C@@H]32)C1` [Example 47, (3R,5R,8R,9R,10S,13R,14S,17R)-3-(methoxymethyl)-13-methyl-17-(2-(5-methyl-2H-tetrazol-2-yl)ethyl)hexadecahydro-1H-cyclopenta[a]phenanthren-3-ol] cannot be ordered by IC50: < 100 nM for the first, < 100 nM for the second.

`CC[C@]12CC[C@@](C)(O)C[C@H]1CC[C@H]1[C@@H]3CC[C@H](C(C)Cn4cc(C#N)cn4)[C@@]3(C)CC[C@@H]12` (stereo in doubt) [Example 325, 1-((S)-2-((3R,5R,8S,9S,10S,13S,14S,17R)-10-ethyl-3-hydroxy-3,13-dimethylhexadecahydro-1H-cyclopenta[a]phenanthren-17-yl)propyl)-1H-pyrazole-4-carbonitrile] and `CC[C@]12CC[C@H]3[C@@H](CC[C@@H]4C[C@](C)(O)CC[C@@H]43)[C@@H]1CC[C@@H]2[C@@H](C)Cn1cc(C#N)cn1` [Example 317, 1-((R)-2-((3R,5R,8R,9R,10S,13S,14S,17R)-13-ethyl-3-hydroxy-3-methylhexadecahydro-1H-cyclopenta[a]phenanthren-17-yl)propyl)-1H-pyrazole-4-carbonitrile] cannot be ordered by IC50: < 100 nM for the first, < 100 nM for the second.

`COC[C@@]1(O)CC[C@H]2[C@H](CC[C@@H]3[C@@H]2CC[C@]2(C)[C@@H]([C@@H](C)NC(=O)c4ccc(OC(F)(F)F)cn4)CC[C@@H]32)C1` [Example 128] and `C[C@H](NC(=O)c1ccc(F)cn1)[C@H]1CC[C@H]2[C@@H]3CC[C@@H]4C[C@](C)(O)CC[C@@H]4[C@H]3CC[C@]12C` [Example 124] fall in the same range of IC50: 100 to 1000 nM for the first, 100 to 1000 nM for the second.

`CCOC[C@@]1(O)CC[C@H]2[C@H](CC[C@@H]3[C@@H]2CC[C@]2(C)[C@@H]([C@@H](C)Nc4cccc(N5CCCC5=O)c4C)CC[C@@H]32)C1` [Example 259] and `CCOC[C@@]1(O)CC[C@H]2[C@H](CC[C@@H]3[C@@H]2CC[C@]2(C)[C@@H]([C@@H](C)NC(=O)c4ccc(C#N)cc4F)CC[C@@H]32)C1` [Example 133] cannot be ordered by IC50: < 100 nM for the first, < 100 nM for the second.

First: C[C@H](Nc1ccccc1)[C@H]1CC[C@H]2[C@@H]3CC[C@@H]4C[C@](C)(O)CC[C@@H]4[C@H]3CC[C@]12C [Example 26, (3R,5R,8R,9R,10S,13S,14S,17S)-3,13-dimethyl-17-((S)-1-(phenylamino)ethyl)hexadecahydro-1H-cyclopenta[a]phenanthren-3-ol]
Second: C[C@H](Nc1cccc(C#N)c1)[C@H]1CC[C@H]2[C@@H]3CC[C@@H]4C[C@](C)(O)CC[C@@H]4[C@H]3CC[C@]12C [Example 201]
The IC50 of the first is higher: 1000 to 10000 nM for the first, 100 to 1000 nM for the second.

First: Cc1cc(C[C@@H](C)[C@H]2CC[C@H]3[C@@H]4CC[C@@H]5C[C@](C)(O)CC[C@@H]5[C@H]4CC[C@]23C)sn1 [Example 451]
Second: C[C@@H]([C@H]1CC[C@H]2[C@@H]3CC[C@@H]4C[C@](C)(O)CC[C@@H]4[C@H]3CC[C@]12C)N(C)c1ccccc1 [Example 39, (3R,5R,8R,9R,10S,13S,14S,17S)-3,13-dimethyl-17-((S)-1-(methyl(phenyl)amino)ethyl)hexadecahydro-1H-cyclopenta[a]phenanthren-3-ol]
The IC50 of the first is lower: 100 to 1000 nM for the first, 1000 to 10000 nM for the second. The first is the more potent here.

`COC[C@@]1(O)CC[C@H]2[C@@H](CC[C@@H]3[C@@H]2CC[C@]2(C)[C@@H](CCn4nnnc4C)CC[C@@H]32)C1` [Example 296, (3R,5S,8R,9R,10S,13R,14S,17R)-3-(methoxymethyl)-13-methyl-17-(2-(5-methyl-1H-tetrazol-1-yl)ethyl)hexadecahydro-1H-cyclopenta[a]phenanthren-3-ol] and `CCOC[C@@]1(O)CC[C@H]2[C@H](CC[C@@H]3[C@@H]2CC[C@]2(C)[C@@H]([C@@H](C)Cn4nnc(C)n4)CC[C@@H]32)C1` [Example 290, (3R,5R,8R,9R,10S,13S,14S,17R)-3-(ethoxymethyl)-13-methyl-17-((R)-1-(5-methyl-2H-tetrazol-2-yl)propan-2-yl)hexadecahydro-1H-cyclopenta[a]phenanthren-3-ol] cannot be ordered by IC50: < 100 nM for the first, < 100 nM for the second.

`COC[C@@]1(O)CC[C@@]2(C)[C@H](CC[C@@H]3[C@@H]2[C@H](O)C[C@]2(C)[C@@H]([C@@H](C)Cn4cc(C#N)cn4)CC[C@@H]32)C1` [Example 283, 1-((R)-2-((3R,5R,8S,9S,10S,11R,13S,14S,17R)-3,11-dihydroxy-3-(methoxymethyl)-10,13-dimethylhexadecahydro-1H-cyclopenta[a]phenanthren-17-yl)propyl)-1H-pyrazole-4-carbonitrile] and `COC[C@@]1(O)CC[C@@]2(C)[C@H](CC[C@@H]3[C@@H]2[C@@H](O)C[C@]2(C)[C@@H]([C@H](C)Cn4cc(C#N)cn4)CC[C@@H]32)C1` [Example 328, 1-((S)-2-((3R,5R,8S,9S,10S,11S,13S,14S,17R)-3,11-dihydroxy-3-(methoxymethyl)-10,13-dimethylhexadecahydro-1H-cyclopenta[a]phenanthren-17-yl)propyl)-1H-pyrazole-4-carbonitrile] fall in the same range of IC50: 100 to 1000 nM for the first, 100 to 1000 nM for the second.

`CC[C@@]1(O)CC[C@@]2(C)[C@H](CC[C@@H]3[C@@H]2CC[C@]2(C)[C@@H]([C@H](C)Cn4ccc(C#N)n4)CC[C@@H]32)C1` [Example 62, 1-((S)-2-((3R,5R,8R,9S,10S,13S,14S,17R)-3-ethyl-3-hydroxy-10,13-dimethylhexadecahydro-1H-cyclopenta[a]phenanthren-17-yl)propyl)-1H-pyrazole-3-carbonitrile] and `CCCC[C@@]1(O)CC[C@H]2[C@H](CC[C@@H]3[C@@H]2CC[C@]2(C)[C@@H]([C@H](C)Cn4cc(C#N)cn4)CC[C@@H]32)C1` [Example 312] cannot be ordered by IC50: < 100 nM for the first, < 100 nM for the second.

Compared with `CCC[C@@]1(O)CC[C@H]2[C@H](CC[C@@H]3[C@@H]2CC[C@@]2(C)[C@H]3CC[C@]2(O)[C@H](C)Cn2cc(C#N)cn2)C1` [Example 348, 1-((R)-2-((3R,5R,8R,9R,10S,13S,14S,17S)-3,17-dihydroxy-13-methyl-3-propylhexadecahydro-1H-cyclopenta[a]phenanthren-17-yl)propyl)-1H-pyrazole-4-carbonitrile], `C[C@@H](Nc1ccc(C#N)cc1)[C@H]1CC[C@H]2[C@@H]3CC[C@@H]4C[C@](C)(O)CC[C@@H]4[C@H]3CC[C@]12C` [Example 33, 4-(((R)-1-((3R,5R,8R,9R,10S,13S,14S,17S)-3-hydroxy-3,13-dimethylhexadecahydro-1H-cyclopenta[a]phenanthren-17-yl)ethyl)amino)benzonitrile] is lower in IC50: 1000 to 10000 nM for the first, < 100 nM for the second.
